Results: patent US6642178B2, “Adjuvant blend for enhancing efficacy of pesticides” (priority 2001, dated 2003)

Columns and labels:
[1] = system: green foxtail; test: Green foxtail control with nicosulfuron as influenced by adjuvants (greenhouse); assay type: in vivo; conditions: nicosulfuron 0.04 oz/A, no adjuvant; 2 WAT
Excerpt: TABLE 3 includes the results of assessment made 2 WAT (weeks after treatment).

[2] = system: large crabgrass; test: Large crabgrass control with nicosulfuron as influenced by adjuvants (greenhouse); assay type: in vivo; conditions: nicosulfuron 0.2 oz/A, no adjuvant, 3 WAT
Excerpt: TABLE 2 includes the results of assessment made 3 WAT (weeks after treatment). Visible injury rating is on a scale 0 to 100% with 0% representing no visible injury and 100% complete kill.

## COc1cc(OC)nc(NC(=O)NS(=O)(=O)c2ncccc2C(=O)N(C)C)n1 [nicosulfuron]
[1]
  % fresh weight reduction: 0%
[2]
  % fresh weight reduction: 57%
[2]; scale 0-100%
  % visible injury: 31%
